Laboratory results from PMC12136225, “Antinociceptive effects of intrathecal Neuropeptide B/W receptor 1 agonists in mouse acute nociception, peripheral neuropathy, and inflammatory pain models” (Research Square, 2025).

Key:
NPBWR1 = details: NPB-23 ref 24, 25; RTIBW-16 ref 27; cited from earlier work
Excerpt: (§1) So far, behavioral studies have mostly been conducted in rats and relied on exogenous administration of endogenous ligands. NPB is a 29 amino acid peptide with a bromine at the C-6 position of the indole moiety in the N-terminal tryptophan (Trp). […] NPW exists in two functional peptide forms consisting of 23 and 30 amino acid residues.

C57BL/6 mice [1] = assay: Acute nociception hot plate latency assay; assay type: in vivo, mouse; details: for Duration of significant antinociception after administration / Onset of significant antinociceptive effect / Time of peak antinociceptive effect: i.t. 56 and 100 μg, hot plate, n = 8; for ED50 Hot Plate Latency: i.t. injection, 1 hour following treatment, 52 °C hot plate, % MPE, male and female mice, n = 8, 95% confidence intervals in parentheses
Procedure: (§2) NPB-23 ([…]NH2) and RTIBW-16 ([desaminoTrp^1]-Tyr-Lys-Ava-Ava-Ava-Gly-Arg-Ala-Ala-Gly-Leu-Leu-NH2, compound 30 in Ref. [27]) were synthesized as previously reported. RTIBW-16 and NPB-23 were administered via i.t. injections between L4 and L5 vertebrae with an injection volume of 5 μL. The dosing of these compounds was based on previous literature.
(§3) Intrathecal injections were conducted as previously described; injections occurred between the L4 and L5 vertebrae. Briefly, an ‘injection catheter’ made from a 27-gauge needle and polyethylene (PE) 20 tubing was connected to a 10 μl Hamilton syringe. Injections occurred over 5 sec and were generally accompanied by a hind paw twitch response. A 100% motor recovery rate was observed.
Acute nociception measurements were collected via the hot plate latency assay as previously described. Mice were placed on a heated (52 °C) enclosed Hot Plate Analgesia Meter (Columbus Instruments, Columbus, OH). The latency to jump/lick/shake/flick a hind paw was recorded. A 30 second cut-off was used to prevent tissue damage. Latencies were recorded prior to administration of compounds and at each time point over the 24-hour study (0.5, 1, 1.5, 2, 3, 4, 6, 24 hr time points). Latency measurements were taken by observers blinded to treatment conditions. Mice were given a 1-week washout period between test days.
(§4) Hot plate data were converted to percent maximum possible effect (% MPE) with the following equation: ([experimental test value – baseline value) / (30 sec – baseline value)] * 100). Behavioral data were analyzed using a repeated measures two-way analysis of variance (ANOVA) for RTIBW-16 and NPB-23 treatment time course analysis with time as one factor and compound dosing as a second factor [35]. Individual treatment effects were analyzed using repeated measures one-way ANOVA. Dunnett’s test was used for post hoc analysis following a significant ANOVA result. Two tailed, paired t-tests were conducted to compare the magnitude of baseline von Frey measurements to their respective pre-paclitaxel and pre-carrageenan measurements. A p value of < 0.05 was considered statistically significant. As no significant sex effect was observed, male and female data were collapsed. […] When the mean effect of a drug in an experiment was greater than 50%, the ED50 values and corresponding 95% confidence limits were calculated using linear regression, where slopes were allowed to vary. The computer program GraphPad Prism version 10.3 (GraphPad Software Inc.; San Diego, CA) was used in the statistical analyses. Data are plotted as mean ± the standard error of the mean.

C57BL/6 mice [2] = assay: Paclitaxel CIPN model, von Frey mechanical allodynia; assay type: in vivo, mouse; details: for Duration of reversal of mechanical allodynia following treatment: i.t. 100 and 56 μg, paclitaxel CIPN, n = 8
Procedure: as §2
(§5) Paclitaxel was purchased from Bio-Techne (Minneapolis, MN) and was administered in a vehicle solution containing a 1:1:18 ratio of ethanol (100%), polyethylene glycol monooleyl ether (Tokyo Chemical Industry America; Portland, OR), and saline (0.9% w/v NaCl) as previously described. A dosing cycle of paclitaxel consisted of a total of four intraperitoneal (i.p.) paclitaxel injections (8 mg/kg per injection, given every other day. Carrageenan was purchased from Sigma-Aldrich (St. Louis, MO) and made into a 0.3% w/v solution in saline for injections.
as §3
To assess mechanical allodynia within CIPN, mice were habituated to the von Frey testing environment for four consecutive days in 30-minute sessions prior to the first testing session. Baselines were measured as previously described using von Frey monofilaments (North Coast Medical; Morgan Hills, CA) to establish responses to light mechanical touch before paclitaxel or vehicle administration. During testing mice were placed atop a wire mesh screen with spaces 0.5 mm apart. Mice were singly placed beneath an inverted wire mesh basket (8 cm diameter, 15 cm height) and allowed to habituate to the apparatus for 30 minutes before testing. The von Frey assay utilizes a series of calibrated monofilaments (0.4–4.0 g stimulus intensity), applied to the left and right plantar surface of the hind paws utilizing the “up-down” method. […] Responses from the von Frey assay were measured over a 24-hour time course (1, 2, 3, 4, 6, 24 hr timepoints). […]
Hot plate data were converted to percent maximum possible effect (% MPE) with the following equation: ([experimental test value – baseline value) / (30 sec – baseline value)] * 100). Behavioral data were analyzed using a repeated measures two-way analysis of variance (ANOVA) for RTIBW-16 and NPB-23 treatment time course analysis with time as one factor and compound dosing as a second factor [35]. Individual treatment effects were analyzed using repeated measures one-way ANOVA. […]

C57BL/6 mice [3] = assay: Carrageenan inflammatory pain model, von Frey mechanical allodynia; assay type: in vivo, mouse; details: for Attenuation of carrageenan-induced mechanical allodynia: i.t. 100 μg and 56 μg; for Attenuation of carrageenan-induced mechanical allodynia / Time of delayed-onset partial mechanical allodynia attenuation after administration: von Frey, n = 8; for ED50 Carrageenan von Frey: i.t. injection, 1 hour following treatment, carrageenan-induced mechanical allodynia, n = 8, 95% confidence intervals in parentheses; for Time of delayed-onset partial mechanical allodynia attenuation after administration: i.t. lower doses of 10 μg and 5.6 μg
Procedure: as §2, §5, §3
After use in the hot plate latency assay, the same cohort was then used for the carrageen model of inflammatory pain. Mice were given at least a one-week washout period between experimental use. Mice were habituated to the von Frey apparatus and were assessed using the same “up-down” method as described earlier. The carrageenan inflammatory pain model was induced as previously described. Briefly, an intraplantar injection of 0.3% w/v carrageenan in a 20 μL volume using a 27-gauge needle was administered into the right hind paw. […]. The left paw served as an internal control for each subject. The change in paw thickness from baseline was assessed with digital caliper measurements. Paw thickness and von Frey responses were measured over a 24-hour time course (1, 2, 3, 4, 6, 24 hr timepoints), with paw thickness measurements occurring immediately after the von Frey assay at each time point. Mechanical allodynia assessments and paw thickness measurements were conducted by observers blinded to treatment conditions. Intraplantar administration of carrageenan and digital caliper measurement of paw edema were conducted with mice restrained utilizing a plexiglass mouse restrainer (Stoelting Co., Wood Dale, IL)
as §4

C57BL/6 mice [4] = assay: Carrageenan-induced paw edema (paw thickness, digital caliper); assay type: in vivo, mouse; details: i.t., 1 hour time point, change in paw thickness, n = 8
Procedure: as §2
Paclitaxel was purchased from Bio-Techne (Minneapolis, MN) and was administered in a vehicle solution containing a 1:1:18 ratio of ethanol (100%), polyethylene glycol monooleyl ether (Tokyo Chemical Industry America; Portland, OR), and saline (0.9% w/v NaCl) as previously described. […]
After use in the hot plate latency assay, the same cohort was then used for the carrageen model of inflammatory pain. […] Mice were habituated to the von Frey apparatus and were assessed using the same “up-down” method as described earlier. […] The change in paw thickness from baseline was assessed with digital caliper measurements. Paw thickness and von Frey responses were measured over a 24-hour time course (1, 2, 3, 4, 6, 24 hr timepoints), with paw thickness measurements occurring immediately after the von Frey assay at each time point. […]

[5] = cited from earlier work
Excerpt: as §1

Substance | In vitro NPBWR1 agonist activity compared with NPB (NPBWR1) | Duration of significant antinociception after administration (C57BL/6 mice [1]) | Onset of significant antinociceptive effect (C57BL/6 mice [1]) [h] | Time of peak antinociceptive effect (C57BL/6 mice [1]) [h] | ED50 Hot Plate Latency (C57BL/6 mice [1]) | Duration of reversal of mechanical allodynia following treatment (C57BL/6 mice [2]; von Frey) | ED50 Paclitaxel CIPN von Frey (C57BL/6 mice [2]; i.t. injection, 1 hour following treatment, reversal of paclitaxel-induced mechanical allodynia, n = 8, 95% confidence intervals in parentheses) | Reversal of CIPN mechanical allodynia at 1 hour timepoint (C57BL/6 mice [2]; i.t., von Frey, 1 hour) | Attenuation of carrageenan-induced mechanical allodynia (C57BL/6 mice [3]) | ED50 Carrageenan von Frey (C57BL/6 mice [3]) | Time of delayed-onset partial mechanical allodynia attenuation after administration (C57BL/6 mice [3]) [h] | Effect on carrageenan-induced paw edema (initial swelling) compared to vehicle (C57BL/6 mice [4]) | Metabolic stability in rat plasma [5]
Trp-Tyr-Lys-Pro-Ala-Ala-Gly-His-Ser-Ser-Tyr-Ser-Val-Gly-Arg-Ala-Ala-Gly-Leu-Leu-Ser-Gly-Leu-NH2 [NPB-23, truncated human NPB without a bromine at the N-terminal Trp residue; NPBWR1 agonist] | equipotent | up to 6 hours | 0.5 | 1.5 | 18.36 (10.17–33.15) μg | up to 2 hours | 45.06 (33.91–59.88) μg | reverse the CIPN mechanical allodynia back to the baseline | robust mechanical allodynia blockade | 19.92 (13.52–29.35) μg | 2 | significantly reduced the magnitude of initial swelling | –
[desaminoTrp^1]-Tyr-Lys-Ava-Ava-Ava-Gly-Arg-Ala-Ala-Gly-Leu-Leu-NH2 [RTIBW-16] | – | 2 h | 0.5 | 1.5 | 42.86 (25.09–73.21) μg | up to 3 hours | – | – | fully attenuated peak carrageenan-induced mechanical allodynia | 29.47 (21.71–40.00) μg | 3 | significantly reduced the magnitude of initial swelling | improved metabolic stability in rat plasma
